In patent US20120328516A1, “METHOD OF RADIOTHERAPY USING A RADIOLABELLED RGD PEPTIDE” (priority 2009, published 2012):
Starred links: 1 amine or outer side, 2 acyl side, 3 side chain; linkers in the order of their positions; H or OH if unused. Positions of bridges follow the written chain, without caps; N, C: chain ends. Residues, ends and D or L forms follow the SMILES beside them. Groups on a side chain read outwards from the residue. *: point of attachment. X3 = C/C(=N/O)C(C)(C)NCCC(CCNC(C)(C)/C(C)=N\O)CCN*; Glutaryl = O=C(CCCC(=O)[*:2])[*:1]; X2 = NC(=O)COCC(=O)NCCOCCOCCOCCN*

Key:
[1] = tested on: alphavbeta3/5 integrins; test: co-registered contrast-enhanced CT and SPECT emission imaging of a necrotic lymph node metastasis for a primary breast cancer; format: in vivo
From the text: The emission image was obtained for ^99mTc-maraciclatide. The necrotic centre in the CT image which corresponds to no uptake of the agent in the SPECT image.

[2] = tested on: subcutaneous U87 tumour; test: co-registered coronal micro-PET/CT imaging of mouse bearing a subcutaneous U87 tumour; format: in vivo, C57/BI6 mouse; settings: same mouse imaged with ^18F-FDG (3A) and ^18F-fluciclatide (3B); comparison of the two images
From the text: FIGS. 3A and 3B show co-registered coronal micro-PET/CT images of the same C57/BI6 mouse bearing a subcutaneous U87 tumour on its left side. The emission image in 3A is that of ^18F-FDG and that in 3B is of ^18F-fluciclatide.

SMILES	uptake of the agent in the necrotic centre ([1]; SPECT image, necrotic centre of lymph node metastasis seen in CT image)	uptake in the sternum ([1]; concluded to be due to bone marrow uptake)	region surrounding the necrotic centre due to angiogenesis and other expressions of alphavbeta3/5 integrins ([1]; emission image co-registered with CT)	tumour uptake volume [2]
C/C(=N/O)C(C)(C)NCCC(CCNC(=O)CCCC(=O)NCCCC[C@@H]1NC(=O)CSC[C@@H](C(=O)NCCOCCOCCOCCNC(=O)COCC(N)=O)NC(=O)[C@H](Cc2ccccc2)NC(=O)[C@@H]2CSSC[C@H](NC1=O)C(=O)N[C@@H](CCCNC(=N)N)C(=O)NCC(=O)N[C@@H](CC(=O)O)C(=O)N2)CCNC(C)(C)/C(C)=N\O (stereo partly shown) [^99mTc-maraciclatide, metal not drawn] ({CH2CO}-K([Glutaryl-X3])CRGDCFC-X2; disulfide 2-6; thioether N-8)	no uptake	uptake in the sternum	highlighted	–
OC[C@H]1OC(O)[C@H](F)[C@@H](O)[C@@H]1O (stereo partly shown) [^18F-FDG, fluorodeoxyglucose, reference compound]	–	–	–	difference in tumour uptake volumes
